Columns and labels:
Format in all cases: in vivo
[1] = system: large (Lg) crabgrass (Digitaria sanguinalis); assay: Test E preemergence; details: scale 0 to 100
Description: Seeds of plant species selected from corn (Zea mays), soybean (Glycine max), velvetleaf (Abutilon theophrasti), cocklebur (common cocklebur, Xanthium strumarium), lambsquarters (Chenopodium album), wild poinsettia (Euphorbia heterophylla), palmer pigweed (Amaranthus palmeri), waterhemp (common waterhemp, Amaranthus rudis), surinam grass (Brachiaria decumbens), large (Lg) crabgrass (Digitaria sanguinalis), Brazilian crabgrass (Digitaria horizontalis), fall panicum (Panicum dichotomiflorum), giant foxtail (Setaria faberii), green foxtail (Setaria viridis), goosegrass (Eleusine indica), johnsongrass (Sorghum halepense), ragweed (common ragweed, Ambrosia elatior), barnyardgrass (Echinochloa crus-galli), sandbur (southern sandbur, Cenchrus echinatus), arrowleaf sida (Sida rhombifolia), Italian ryegrass (Lolium multiflorum), dayflower (Virginia (VA) dayflower, Commelina virginica), field bindweed (Convolvulus arvensis), morningglory (Ipomoea coccinea), nightshade (eastern black nightshade, Solanum ptycanthum), kochia (Kochia scoparia), yellow nutsedge (Cyperus esculentus), horseweed (Conyza canadensis), and hairy beggarticks (Bidens pilosa), were planted into a silt loam soil and treated preemergence with test chemicals formulated in a non-phytotoxic solvent mixture which included a surfactant.
At the same time, plants from these crop and weed species and also waterhemp_RES1, (ALS & Triazine resistant common waterhemp, Amaranthus rudis), and waterhemp_RES2, (ALS & HPPD resistant common waterhemp, Amaranthus rudis) were planted in pots containing Redi-Earth® planting medium (Scotts Company, 14111 Scottslawn Road, Marysville, Ohio 43041) comprising spaghnum peat moss, vermiculite, wetting agent and starter nutrients were treated with postemergence applications of test chemicals formulated in the same manner. Plants ranged in height from 2 to 18 cm for postemergence treatments (1- to 4-leaf stage). Treated plants and controls were maintained in a greenhouse for 14 to 21 days, after which time all species were compared to controls and visually evaluated. Plant response ratings, summarized in Table E, are based on a scale of 0 to 100 where 0 is no effect and 100 is complete control. A dash (-) response means no test result.

[2] = system: Italian ryegrass (Lolium multiflorum); assay: Test C preemergence; details: Lolium multiflorum, pre-emergence, 336 h, scale 0 to 100, read-out: Plant response rating, Ryegrass, Italian
How it was run: (§1)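 Visual ratings (0 none to 100 complete control) were made 13 to 15 days after treatment, relative to controls. Test chemicals, formulated in a non-phytotoxic solvent mixture with surfactant, were applied in the greenhouse preemergence to seeded loam-sand soil or postemergence to plants 2 to 18 cm tall.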

[3] = system: large (Lg) crabgrass (Digitaria sanguinalis); assay: Test C preemergence; details: Digitaria sanguinalis, pre-emergence, 336 h, scale 0 to 100, read-out: Plant response rating, Crabgrass, Large
How it was run: as §1

[4] = system: ragweed (common ragweed, Ambrosia elatior); assay: Test C preemergence; details: Ambrosia artemisiifolia, pre-emergence, 336 h, scale 0 to 100, read-out: Plant response rating, Ragweed
How it was run: as §1

[5] = system: giant foxtail (Setaria faberii); assay: Test C preemergence; details: Setaria faberi, pre-emergence, 336 h, scale 0 to 100, read-out: Plant response rating, Foxtail, Giant
How it was run: as §1

[6] = system: winter wheat (Triticum aestivum); assay: Test C preemergence; details: Triticum aestivum, pre-emergence, 336 h, scale 0 to 100, read-out: Plant response rating, Wheat
How it was run: as §1

[7] = system: barnyardgrass (Echinochloa crus-galli); assay: Test C preemergence; details: Echinochloa crus-galli, pre-emergence, read-out: Plant response rating, Barnyardgrass
How it was run: as §1

[8] = system: yellow nutsedge (Cyperus esculentus); assay: Test C preemergence; details: Cyperus, pre-emergence, 336 h, scale 0 to 100, read-out: Plant response rating, Nutsedge, Yellow
How it was run: as §1

[9] = system: lambsquarters (Chenopodium album); assay: Test C preemergence; details: Chenopodium album, pre-emergence, 336 h, scale 0 to 100, read-out: Plant response rating, Lambsquarters
How it was run: as §1

[10] = system: blackgrass (Alopecurus myosuroides); assay: Test C preemergence; details: Alopecurus myosuroides, pre-emergence, 336 h, scale 0 to 100, read-out: Plant response rating, Blackgrass
How it was run: as §1

[11] = system: velvetleaf (Abutilon theophrasti); assay: Test C preemergence; details: Abutilon theophrasti, pre-emergence, scale 0 to 100, read-out: Plant response rating, Velvetleaf
How it was run: as §1

[12] = system: pigweed (Amaranthus retroflexus); assay: Test C preemergence; details: Amaranthus retroflexus, pre-emergence, 336 h, scale 0 to 100, read-out: Plant response rating, Pigweed
How it was run: as §1

soybean (Glycine max) = assay: Test C preemergence; details: Glycine max, pre-emergence, scale 0 to 100, read-out: Plant response rating, Soybean
How it was run: as §1

corn (Zea mays) = assay: Test C preemergence; details: Zea mays, pre-emergence, 336 h, scale 0 to 100
How it was run: as §1

[13] = system: johnsongrass (Sorghum halepense); assay: Test C preemergence; details: Sorghum halepense, pre-emergence, 336 h, scale 0 to 100, read-out: Plant response rating, Johnsongrass
How it was run: as §1

SMILES: Clc1cnc(Oc2cccc(Br)c2Oc2ncc(Cl)cn2)nc1 [Compound 19, 2,2′-[[3-bromo-1,2-phenylene]bis(oxy)]bis[5-chloropyrimidine]]
- Plant response rating, Crabgrass, Large ([1]; 16 g ai/ha): 20
- Plant response rating, Crabgrass, Large ([1]; 31 g ai/ha): 80
- Plant response rating, Crabgrass, Large ([1]; 62 g ai/ha): 100
- Plant response rating, Crabgrass, Large ([1]; 125 g ai/ha): 100
- pest or weed control at 31 g/ha ([2]; 31 g ai/ha, preemergence): 50%
- pest or weed control at 62 g/ha ([2]; 62 g ai/ha, preemergence): 70%
- pest or weed control at 125 g/ha ([2]; 125 g ai/ha, preemergence): 90%
- pest or weed control at 16 g/ha ([2]; Preemergence, 16 g ai/ha): 5%
- pest or weed control at 31 g/ha ([3]; 31 g ai/ha, preemergence): 100%
- pest or weed control at 62 g/ha ([3]; 62 g ai/ha, preemergence): 100%
- pest or weed control at 125 g/ha ([3]; 125 g ai/ha, preemergence): 100%
- pest or weed control at 16 g/ha ([3]; Preemergence, 16 g ai/ha): 98%
- pest or weed control at 31 g/ha ([4]; 31 g ai/ha, preemergence): 30%
- pest or weed control at 62 g/ha ([4]; 62 g ai/ha, preemergence): 55%
- pest or weed control at 125 g/ha ([4]; 125 g ai/ha, preemergence): 60%
- pest or weed control at 16 g/ha ([4]; Preemergence, 16 g ai/ha): 0%
- pest or weed control at 31 g/ha ([5]; 31 g ai/ha, preemergence): 100%
- pest or weed control at 62 g/ha ([5]; 62 g ai/ha, preemergence): 100%
- pest or weed control at 125 g/ha ([5]; 125 g ai/ha, preemergence): 100%
- pest or weed control at 16 g/ha ([5]; Preemergence, 16 g ai/ha): 60%
- plant injury at 31 g/ha ([6]; 31 g ai/ha, preemergence): 25%
- plant injury at 62 g/ha ([6]; 62 g ai/ha, preemergence): 40%
- plant injury at 125 g/ha ([6]; 125 g ai/ha, preemergence): 85%
- plant injury at 16 g/ha ([6]; Preemergence, 16 g ai/ha): 0%
- pest or weed control at 31 g/ha ([7]; 31 g ai/ha, preemergence, scale 0 to 100): 55%
- pest or weed control at 62 g/ha ([7]; 62 g ai/ha, preemergence, scale 0 to 100): 100%
- pest or weed control at 125 g/ha ([7]; 125 g ai/ha, preemergence, scale 0 to 100): 100%
- pest or weed control at 16 g/ha ([7]; Preemergence, 16 g ai/ha, scale 0 to 100 (0 no effect, 100 complete control)): 15%
- pest or weed control at 31 g/ha ([8]; 31 g ai/ha, preemergence): 5%
- pest or weed control at 62 g/ha ([8]; 62 g ai/ha, preemergence): 20%
- pest or weed control at 125 g/ha ([8]; 125 g ai/ha, preemergence): 55%
- pest or weed control at 16 g/ha ([8]; Preemergence, 16 g ai/ha): 0%
- pest or weed control at 31 g/ha ([9]; 31 g ai/ha, preemergence): 100%
- pest or weed control at 62 g/ha ([9]; 62 g ai/ha, preemergence): 100%
- pest or weed control at 125 g/ha ([9]; 125 g ai/ha, preemergence): 100%
- pest or weed control at 16 g/ha ([9]; Preemergence, 16 g ai/ha): 98%
- pest or weed control at 31 g/ha ([10]; 31 g ai/ha, preemergence): 40%
- pest or weed control at 62 g/ha ([10]; 62 g ai/ha, preemergence): 90%
- pest or weed control at 125 g/ha ([10]; 125 g ai/ha, preemergence): 95%
- pest or weed control at 16 g/ha ([10]; Preemergence, 16 g ai/ha): 30%
- pest or weed control at 31 g/ha ([11]; 31 g ai/ha, preemergence): 98%
- pest or weed control at 62 g/ha ([11]; 62 g ai/ha, preemergence): 100%
- pest or weed control at 125 g/ha ([11]; 125 g ai/ha, preemergence): 100%
- pest or weed control at 16 g/ha ([11]; Preemergence, 16 g ai/ha): 60%
- pest or weed control at 31 g/ha ([12]; 31 g ai/ha, preemergence): 100%
- pest or weed control at 62 g/ha ([12]; 62 g ai/ha, preemergence): 100%
- pest or weed control at 125 g/ha ([12]; 125 g ai/ha, preemergence): 100%
- pest or weed control at 16 g/ha ([12]; Preemergence, 16 g ai/ha): 100%
- plant injury at 31 g/ha (soybean (Glycine max); 31 g ai/ha, preemergence): 50%
- plant injury at 62 g/ha (soybean (Glycine max); 62 g ai/ha, preemergence): 90%
- plant injury at 125 g/ha (soybean (Glycine max); 125 g ai/ha, preemergence): 80%
- plant injury at 16 g/ha (soybean (Glycine max); Preemergence, 16 g ai/ha): 25%
- Corn plant response rating (crop injury, 0 = no effect, 100 = complete kill) at 31 g/ha (corn (Zea mays); 31 g ai/ha, preemergence): 25%
- Corn plant response rating (crop injury, 0 = no effect, 100 = complete kill) at 62 g/ha (corn (Zea mays); 62 g ai/ha, preemergence): 80%
- Corn plant response rating (crop injury, 0 = no effect, 100 = complete kill) at 125 g/ha (corn (Zea mays); 125 g ai/ha, preemergence): 90%
- Corn plant response rating (crop injury, 0 = no effect, 100 = complete kill) at 16 g/ha (corn (Zea mays); Preemergence, 16 g ai/ha): 5%
- pest or weed control at 31 g/ha ([13]; 31 g ai/ha, preemergence): 50%
- pest or weed control at 62 g/ha ([13]; 62 g ai/ha, preemergence): 85%
- pest or weed control at 125 g/ha ([13]; 125 g ai/ha, preemergence): 98%
- pest or weed control at 16 g/ha ([13]; Preemergence, 16 g ai/ha): 35%

Reference: patent US20170190671A1, “BIS(ARYL)CATECHOL DERIVATIVES AS HERBICIDES” (E I DU PONT DE NEMOURS AND COMPANY, priority 2014, published 2017)
